From a melting point compilation (Tetko et al.; mined from patent text by program, amines drawn as free bases though some values may be those of a salt) come the findings set out here.

The melting point is the temperature, or range, at which the solid turns liquid. Compound `O=C1c2cc(F)ccc2C(=O)c2c1nc1ccccn21` yielded a melting point of more than 260 °C.

Regarding `O=S(=O)(/C=C\S(=O)(=O)c1ccccc1)c1ccccc1`, the melting point was 100 to 101 °C.

For the compound `Cc1cc(Oc2c(Cl)cc(C(F)(F)F)cc2Cl)ccc1S(=O)(=O)C(F)(F)F`, the melting point lay in the range of 121 to 122 °C.

`CCc1c(-c2cc(C)c(OC)c(C)c2)[nH]c2ccccc12` had a melting point of 126 to 127 °C.

In turn, `CCCCN(C)C(=O)CS(=O)CCCCCCOc1ccc(C2=C(c3ccccc3)CCCc3cc(O)ccc32)cc1` (centres undefined) returned a melting point of 72 to 73 °C.

As to `CC1(C)CCC[C@]2(C)OC(=O)C[C@H]12`, the melting point lay in the range of 74 to 75 °C.

Consider `COc1ccc(C2(c3ccc(OC)cc3)Nc3ccc(-c4ccc5[nH]cnc5c4)cc3N2)cc1`, for which the melting point was 267 to 270 °C.

As to `O=C(O)c1ccc(-c2nc(-c3ccccc3C(F)(F)F)co2)cc1`, the melting point is 264 to 265 °C.

For the compound `COc1cccc(C(=O)O)c1C`, the melting point is 145 to 147 °C.

Compound `CC(N1CCN(c2ncn(Cc3ccc(C(C)(C)C)cc3)n2)CC1)C(O)(Cn1cncn1)c1ccc(F)cc1F` (centres undefined) returned a melting point of 84 to 86 °C.

In turn, `CCN1CCN(Cc2cc(-c3ccc4c(Nc5cc(OC)c(Cl)cc5Cl)c(C#N)cnc4c3)cs2)CC1` came in with a melting point of 118 to 120 °C.

The compound `CN1C(=O)C(NC(=O)Nc2ccccc2)N=C(c2ccccc2)c2ccccc21` (centres undefined) yielded a melting point of 260 to 261 °C.

`CC(=O)CCc1ccc(-c2ccccc2F)cc1` gave a melting point of 30 °C.

With `CCOC(=O)c1cnc2ccc(OCC)nc2c1Nc1ccc(Oc2ccccn2)cc1`, the melting point lay within 148 to 151 °C.

Turning to `c1ccc(C(c2ccccc2)(c2ccns2)n2cncn2)cc1`, the melting point is 235 to 240 °C.

For `CCCCCCCCCCOc1ccc(CC(=O)OC)cc1`, the melting point was 42 to 44 °C.

For the compound `CNC(=S)C1=CC(C)(CF)Oc2ccc([N+](=O)[O-])cc21` (centres undefined), the melting point was 141 to 144 °C.

For the compound `CC(C)(C)CC(NC(=O)c1ccccc1)Nc1c(Nc2cccnc2Cl)c(=O)c1=O` (centres undefined), the melting point lay within 259 to 260 °C.

`CC(=O)Nc1ccccc1C(=O)C=Cc1ccncc1` came in with a melting point of 130 °C.

Regarding `C=C1c2ccccc2-c2ccccc21`, the melting point was 46 to 48 °C.

For `COc1cc(C2COc3c(C)c(C)c(NC(=O)CC(C)(C)C)c(C)c32)ccc1C(C)C` (centres undefined), the melting point fell in the range of 170 to 171 °C.

Regarding `CSN=C1C(=O)N2C1SC(C)(C)C2C(=O)OCC(Cl)(Cl)Cl` (centres undefined), the melting point fell in the range of 129 to 130 °C.

For the compound `CCNC(=O)NC(=O)Nc1ccccc1`, the melting point fell in the range of 80 to 81.5 °C.

For `O=C(Cl)N1CCC(N2CCCCC2)CC1`, the melting point came out at 63.8 °C.

`c1ccc(CN2CCC(Nc3cccnc3)CC2)cc1`: the melting point lay within 131 to 133 °C.

As for `Nc1ccc(CS(=O)(=O)NCc2ccccc2)cc1`, the melting point fell in the range of 117 to 118 °C.

Compound `CCOC(=O)CC(=O)c1cc(F)c(Br)c(F)c1F` gave a melting point of 51 to 59 °C.

Consider `O=C(O)C(F)(CCC(F)(F)C(F)(F)C(F)(F)C(F)(F)F)C(F)(F)F` (centres undefined), for which the melting point was 45 to 46 °C.

In the case of `CCCc1nc(C=NNC(=S)SC)c[nH]1`, the melting point fell in the range of 95 to 104 °C.

Regarding `CCOC(=O)C(C(=O)OCC)c1ccc([N+](=O)[O-])cn1`, the melting point lay within 91.5 to 93.5 °C.

Compound `CCCS(=O)(=O)c1ccccc1S(=O)(=O)NC(=O)Nc1nc(Cl)cc(OC)n1` returned a melting point of 193 to 195 °C.

In the case of `CC(=O)c1cc([N+](=O)[O-])ccc1NC(=O)CCl`, the melting point was determined as 162 °C.

Consider `COc1ccc(-c2csc(Nc3ncccc3C)n2)cc1OC`, for which the melting point was in the range of 264 to 266 °C.

For the compound `COc1nc(C)cnc1NS(=O)(=O)c1cccnc1-c1ccc(CC(C)(C)C)cc1`, the melting point fell in the range of 159 to 160 °C.

`CCCc1cc(C=CC(=O)c2ccc(O)cc2)c(OC)cc1O` came in with a melting point of 126 to 128 °C.

Turning to `O=C1Nc2ccc(F)nc2N2CCNCC12` (centres undefined), the melting point lay in the range of 305 to 308 °C.

On to `CCCCCOc1nc(Cl)nc2ccccc12`, for which the melting point was 32 to 34 °C.

`COc1ccc(-c2nn(CC3CC3)c(=O)c(C(N)=O)c2-c2ccc(OC)cc2)cc1` returned a melting point of 174 to 175 °C.

`CCOC(=O)/C=C/c1c(CC)cnc2c(NC(=O)c3c(Cl)cccc3Cl)cccc12`: the melting point was 115 to 118 °C.

`c1cn(-c2cc(-n3ccnc3)ncn2)cn1` gave a melting point of 243 to 244 °C.

With `Cc1nc2cc(-c3ccccc3)nn2c2c1CCN2C(C)(C)C`, the melting point was in the range of 244 to 248 °C.

`COc1ccc(/C=C/c2ccc(Cl)cc2[N+](=O)[O-])c([N+](=O)[O-])c1` had a melting point of 202 °C.

As to `CN(C)C(=O)c1c(-c2ccc(N(C)C)cc2)ccc2ccccc12`, the melting point is 156 to 157 °C.

Regarding `CCCc1nccn1C(C)COCC1=C(C(=O)OCC)C(c2ccccc2Cl)C2=C(CCCC2=O)N1` (centres undefined), the melting point lay within 127 to 131 °C.

For the compound `CC(=O)CNc1ccc(/C=C/C(=O)O)cc1`, the melting point lay within 213 to 215 °C.

As for `Cc1c(OCc2ccccc2)c(=O)ccn1CC(=O)NCCCCNCCCNC(=O)Cn1ccc(=O)c(OCc2ccccc2)c1C`, the melting point came out at 89 °C.

Take `c1ccc(CNc2nc3ccccc3s2)cc1`: the melting point was 159 °C.

In turn, `O=c1[nH]c(=Cc2ccc(OCc3ccccc3)cn2)c(=O)[nH]c1=Cc1ccc2c(c1)OCO2` gave a melting point of 255 to 256 °C.

As for `CC(C)(C)c1ccc(C[C@@H](NC(=O)c2ccc(F)c3ccccc23)[C@@H](O)c2ccc(F)cc2)cc1` (racemic), the melting point lay in the range of 149 to 150 °C.

Regarding `O=C(O)c1ncn(C(c2ccccc2)c2ccccc2)c1C(=O)O`, the melting point was 194 °C.

In turn, `O=C(O)CCCOc1cccc(OCCC(c2ccccc2)(c2ccccc2)c2ccccc2)c1` showed a melting point of 53 to 55 °C.

As for `C(=C\c1nc(COc2ccc(CCCCCCn3cncn3)cc2)co1)/c1ccccc1`, the melting point was 90 to 91 °C.

As to `Cc1nc(-n2ccc(CCc3ccccc3)cc2=O)sc1C(=O)NCc1ccccc1`, the melting point lay within 149 to 150 °C.

In the case of `Cc1cc(C(=O)Nc2ccc(OCC(C)(C)C)c(C#N)c2)n(-c2ccc(F)cc2)n1`, the melting point was 165 °C.

Regarding `N#Cc1ccc(C(=O)N2CCc3[nH]c4c(cnc5cc(Cl)ccc54)c3C2)cc1`, the melting point was more than 300 °C.

For the compound `COc1ccc(Cn2c(=O)c3ccccc3n(CCCCCl)c2=O)cc1`, the melting point lay within 123 to 124 °C.

Regarding `CCCCN1C(=O)NC(=Cc2cccs2)C1=O`, the melting point was found to be 140 °C.

Compound `NC(=O)CCc1ccc([N+](=O)[O-])cc1` returned a melting point of 177 to 178 °C.

The compound `O=C(Nc1nc(C(Cl)(Cl)Cl)ns1)c1ccccc1Cl` had a melting point of 142 °C.

Turning to `COc1cc(C(=O)C(=O)N2C3CCCC2C(=O)N(CCCCc2ccccc2)C3=O)cc(OC)c1OC`, the melting point is 101 to 103 °C.

The compound `CCc1c(C)c(NC(=O)CC(C)(C)C)c(C)c2c1SCC2c1ccc(C(C)C)cc1` (centres undefined) yielded a melting point of 172 to 173 °C.

`COCCOc1cc(N(C)S(=O)(=O)c2ccccn2)c2[nH]c(C3=NCC(CC(N)=O)S3)cc2c1` (centres undefined) yielded a melting point of 100 to 102 °C.

Compound `Cl[Si](Cl)(Cl)Cc1ccc(-c2ccccc2)cc1` showed a melting point of 60 to 65 °C.

The compound `CC12CCC3c4ccc(OCc5ccccc5)cc4CCC3C1CCC2O` (centres undefined) registered a melting point of 97 to 100 °C.
